These results are taken from ChEMBL document CHEMBL5214962, “Improving lipophilicity of 5-(1-acetyl-5-phenylpyrazolidin-3-ylidene)-1,3-dimethylbarbituric acid increases its efficacy to activate hypoxia-inducible factors” (Bioorg Med Chem, 2022).

Active and inactive are the calls of the source. The calls are words filed in the database; no cut-off is given here. A value given as a limit tells only on which side of the number the result lay.

Series [1] can be described thus: Cytotoxicity against human SK-N-BE(2)-C expressing HRE-NLuc reporter system assessed as reduction in cell viability incubated for 24 hrs by CCK-8 assay. It counts as toxicity, cell-based. As to conditions: SK-N-BE(2)-C cells expressing HRE-NLuc reporter system, read-out: LC50. (In general: Tetrazolium dyes change colour on reduction, which living cells bring about.)

For another series, the system named is SK-N-BE(2)-C. The series can be described thus: Activation of HIF-alpha transcriptional activity in human SK-N-BE(2)-C expressing HRE-NLuc reporter system assessed as compound concentration require for 5 fold increase in NLuc luciferase activity incubated for 24 hrs by Nano-Glo luciferase assay. The series is classed as cell-based.
The target of series [2] is Endothelial PAS domain-containing protein 1 (Homo sapiens) (UniProt Q99814). As to the kind of experiment: Induction of HIF-2alpha stabilization in human Hep3B cells assessed as […] at 1 to 100 uM incubated for 24 hrs by immunoblot analysis. It counts as cell-based. To be noted: filed as activator, dose 1-100 µM, DDE = dose-dependent effect.
Series [3] shares this target. The series can be described thus: Induction of HIF-2alpha stabilization in human Hep3B cells assessed as […] at 16 to 1000 nM incubated for 24 hrs by immunoblot analysis. The series is classed as cell-based. To be noted: filed as activator, dose 16-1000 nM, DDE = dose-dependent effect.
Series [4] deals with Hep3B. The series can be described thus: Activation of HIF dependent pathway in human Hep3B cells assessed as increase in EPO mRNA expression level at 10 to 100 uM incubated for 24 hrs by RT-qPCR analysis. The series is classed as cell-based. To be noted: filed as activator, dose 10-100 µM. In general terms: Real-time PCR tracks product formation cycle by cycle.
Series [5] concerns the target Hypoxia-inducible factor 1-alpha (Homo sapiens) (UniProt Q16665). The series can be described thus: Induction of HIF-1alpha stabilization in human Hep3B cells assessed as HIF-1alpha level at 16 to 1000 nM incubated for 24 hrs by immunoblot analysis. It counts as cell-based. To be noted: filed as activator, dose 16-1000 nM, DDE = dose-dependent effect. In general terms: Immunoblotting shows a protein as a band on a membrane.

Series [6] relates to Hep3B. As to the kind of experiment: Activation of HIF dependent pathway in human Hep3B cells assessed as increase in CA9 mRNA expression level at 10 to 100 uM incubated for 24 hrs by RT-qPCR analysis. It counts as cell-based. As to conditions: filed as activator, dose 10-100 µM.
In series [7] the target is Hypoxia-inducible factor 1-alpha (Homo sapiens) (UniProt Q16665). As to the kind of experiment: Induction of HIF-1alpha stabilization in human Hep3B cells assessed as HIF-1alpha level at 1 to 100 uM incubated for 24 hrs by immunoblot analysis. The series is classed as cell-based. As to conditions: filed as activator, dose 1-100 µM, DDE = dose-dependent effect.
Sequence of Hypoxia-inducible factor 1-alpha (Homo sapiens) (Q16665 whole entry, looked up): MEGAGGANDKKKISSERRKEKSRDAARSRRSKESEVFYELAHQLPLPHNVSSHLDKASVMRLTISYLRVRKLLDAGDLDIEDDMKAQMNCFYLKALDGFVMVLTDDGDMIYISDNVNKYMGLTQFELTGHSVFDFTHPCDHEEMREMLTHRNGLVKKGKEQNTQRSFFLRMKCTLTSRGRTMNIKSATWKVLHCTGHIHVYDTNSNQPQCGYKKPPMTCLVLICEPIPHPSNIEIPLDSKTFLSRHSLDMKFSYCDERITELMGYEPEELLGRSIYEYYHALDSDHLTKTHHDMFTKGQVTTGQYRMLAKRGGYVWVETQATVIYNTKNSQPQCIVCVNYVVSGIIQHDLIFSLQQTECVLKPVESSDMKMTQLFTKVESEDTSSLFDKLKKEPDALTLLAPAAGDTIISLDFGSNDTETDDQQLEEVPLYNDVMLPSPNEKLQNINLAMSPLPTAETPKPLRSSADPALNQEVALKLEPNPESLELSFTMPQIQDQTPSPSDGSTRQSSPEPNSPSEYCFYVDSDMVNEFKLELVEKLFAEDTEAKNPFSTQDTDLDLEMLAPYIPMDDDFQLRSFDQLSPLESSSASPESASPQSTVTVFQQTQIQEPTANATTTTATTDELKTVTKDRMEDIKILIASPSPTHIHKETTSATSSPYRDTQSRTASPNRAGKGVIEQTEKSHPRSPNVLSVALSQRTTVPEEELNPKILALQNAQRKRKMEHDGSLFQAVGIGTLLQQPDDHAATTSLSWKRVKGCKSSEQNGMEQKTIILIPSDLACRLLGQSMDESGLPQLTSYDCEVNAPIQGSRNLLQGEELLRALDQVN

Sequence of Endothelial PAS domain-containing protein 1 (Homo sapiens) (Q99814 whole entry, the tested form may be a part): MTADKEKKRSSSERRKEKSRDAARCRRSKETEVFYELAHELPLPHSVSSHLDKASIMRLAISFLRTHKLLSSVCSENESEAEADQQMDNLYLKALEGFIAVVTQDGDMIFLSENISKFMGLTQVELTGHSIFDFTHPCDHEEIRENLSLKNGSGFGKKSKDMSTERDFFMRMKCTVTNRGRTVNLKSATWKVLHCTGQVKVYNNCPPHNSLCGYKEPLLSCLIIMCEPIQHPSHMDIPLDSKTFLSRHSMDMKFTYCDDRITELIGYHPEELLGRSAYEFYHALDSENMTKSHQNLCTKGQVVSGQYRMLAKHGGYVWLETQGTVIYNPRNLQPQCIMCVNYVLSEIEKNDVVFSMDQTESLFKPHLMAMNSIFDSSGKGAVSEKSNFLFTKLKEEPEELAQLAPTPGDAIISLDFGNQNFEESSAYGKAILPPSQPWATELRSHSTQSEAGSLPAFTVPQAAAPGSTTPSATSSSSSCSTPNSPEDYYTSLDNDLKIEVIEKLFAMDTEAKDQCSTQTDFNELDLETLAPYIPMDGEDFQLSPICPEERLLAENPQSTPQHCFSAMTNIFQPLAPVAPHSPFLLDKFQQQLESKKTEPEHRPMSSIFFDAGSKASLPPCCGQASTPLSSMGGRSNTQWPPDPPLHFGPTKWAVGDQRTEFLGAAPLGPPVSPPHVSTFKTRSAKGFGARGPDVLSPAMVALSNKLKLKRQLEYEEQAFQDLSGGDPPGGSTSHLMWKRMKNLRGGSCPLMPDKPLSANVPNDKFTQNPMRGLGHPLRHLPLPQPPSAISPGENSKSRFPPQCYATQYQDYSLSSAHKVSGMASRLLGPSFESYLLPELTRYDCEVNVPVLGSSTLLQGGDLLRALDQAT

On to `COc1ccc(C2CC(=C3C(=O)N(C)C(=O)N(C)C3=O)NN2C(C)=O)cc1` (centres undefined), for which, in series [1], the CC50 at 24 h is greater than 100 µM. Besides, the Activity in the series with SK-N-BE(2)-C (filed as activator) is 19.5 µM.
With `CC(=O)N1NC(=C2C(=O)N(C)C(=O)N(C)C2=O)CC1c1ccc(Oc2ccccc2)cc1` (centres undefined), the CC50 at 24 h in series [1] was greater than 100 µM. Also, the Activity in the series on SK-N-BE(2)-C (filed as activator) is 6.82 µM.
For the compound `CCCCCCCCc1ccc(C2CC(=C3C(=O)N(C)C(=O)N(C)C3=O)NN2C(C)=O)cc1` (centres undefined), in series [1], the CC50 at 24 h is greater than 100 µM. The Activity in the series on SK-N-BE(2)-C (filed as activator) was 12.9 µM.
For the compound `CCCC(=O)N1NC(=C2C(=O)N(C3CCCCC3)C(=O)N(C3CCCCC3)C2=O)CC1c1ccccc1` (centres undefined), in series [1], the CC50 at 24 h is greater than 100 µM. The Activity result in series [2] was “Dde”; in series [3], “Dde”; in the series with SK-N-BE(2)-C (filed as activator), 0.441 µM; in series [5] it was “Dde”; in series [7] it was “Dde”. For the same compound, the result with Hep3B [4] and in the series on Hep3B [6] was Active.
For the compound `CC(C)C(=O)N1NC(=C2C(=O)N(C)C(=O)N(C)C2=O)CC1c1ccccc1` (centres undefined), the CC50 at 24 h in series [1] is greater than 100 µM. Besides, in the series with SK-N-BE(2)-C (filed as activator), the Activity is 8.55 µM.
As for `CCCCCC(=O)N1NC(=C2C(=O)N(C3CCCCC3)C(=O)N(C3CCCCC3)C2=O)CC1c1ccccc1` (centres undefined), the CC50 at 24 h in series [1] is greater than 100 µM. Besides, the Activity in the series on SK-N-BE(2)-C (filed as activator) worked out at 2.41 µM.
Turning to `COc1cccc(C2CC(=C3C(=O)N(C)C(=O)N(C)C3=O)NN2C(C)=O)c1Cl` (centres undefined), the CC50 at 24 h in series [1] is greater than 100 µM. In addition, the Activity with SK-N-BE(2)-C (filed as activator) came to 26.1 µM.
In the same order, the values of `CC(=O)N1NC(=C2C(=O)N(C3CCCCC3)C(=O)N(C3CCCCC3)C2=O)CC1c1ccccc1` (centres undefined) are greater than 100 µM and 0.533 µM.
Take `CC(=O)N1NC(=C2C(=O)N(C)C(=O)N(C)C2=O)CC1c1ccccc1` (centres undefined): in series [1], the CC50 at 24 h is greater than 100 µM. Besides, the Activity entry is “Dde” in series [2], 14.3 µM with SK-N-BE(2)-C (filed as activator) and “Dde” in series [7].
Take `Cc1nc(C(=O)NCC(=O)O)c(O)c2ccc(Oc3ccccc3)cc12`: the Activity result in series [2] and in series [7] was “Dde” each time.
For the compound `CC(C)C(=O)N1NC(=C2C(=O)N(C3CCCCC3)C(=O)N(C3CCCCC3)C2=O)CC1c1ccccc1` (centres undefined), the CC50 at 24 h in series [1] was greater than 100 µM. Also, the Activity in the series with SK-N-BE(2)-C (filed as activator) is 0.364 µM.
In the same order, the values of `CCC(=O)N1NC(=C2C(=O)N(C)C(=O)N(C)C2=O)CC1c1ccccc1` (centres undefined) are greater than 100 µM and 6.53 µM.
`CC(=O)N1NC(=C2C(=O)N(C)C(=O)N(C)C2=O)CC1c1ccc2ccccc2c1` (centres undefined): the CC50 at 24 h in series [1] is greater than 100 µM. Further, the Activity in the series on SK-N-BE(2)-C (filed as activator) was 7.67 µM.
`CC(=O)N1NC(=C2C(=O)N(C)C(=O)N(C)C2=O)CC1c1ccc(C)cc1` (centres undefined): the CC50 at 24 h in series [1] is greater than 100 µM. The Activity in the series with SK-N-BE(2)-C (filed as activator) turned out to be 5.84 µM.
The corresponding values for `CCC(=O)N1NC(=C2C(=O)N(C)C(=O)N(C)C2=O)CC1c1ccc(-c2ccccc2)cc1` (centres undefined) are greater than 100 µM and 3.87 µM.
In the same order, the values of `CC(=O)N1NC(=C2C(=O)N(C)C(=O)N(C)C2=O)CC1c1ccc(-c2ccccc2)cc1` (centres undefined) are greater than 100 µM and 3.88 µM.
The corresponding values for `CCCC(=O)N1NC(=C2C(=O)N(C)C(=O)N(C)C2=O)CC1c1ccccc1` (centres undefined) are greater than 100 µM and 4.85 µM.
As for `CC(=O)N1NC(=C2C(=O)N(C)C(=O)N(C)C2=O)CC1c1ccc(F)cc1` (centres undefined), the CC50 at 24 h in series [1] is greater than 100 µM. The Activity in the series on SK-N-BE(2)-C (filed as activator) came out at 16.5 µM.
For the compound `CCCCCCCCCC(=O)N1NC(=C2C(=O)N(C3CCCCC3)C(=O)N(C3CCCCC3)C2=O)CC1c1ccccc1` (centres undefined), the CC50 at 24 h in series [1] was greater than 100 µM. Also, in the series on SK-N-BE(2)-C, the Activity is greater than 100 µM.
Regarding `CCCCCCCCCC(=O)N1NC(=C2C(=O)N(C)C(=O)N(C)C2=O)CC1c1ccccc1` (centres undefined), in series [1], the CC50 at 24 h was greater than 100 µM. Further, the Activity with SK-N-BE(2)-C (filed as activator) came out at 0.153 µM.
For `CCCCCC(=O)N1NC(=C2C(=O)N(C)C(=O)N(C)C2=O)CC1c1ccccc1` (centres undefined), the CC50 at 24 h in series [1] is greater than 100 µM. The Activity with SK-N-BE(2)-C (filed as activator) turned out to be 0.96 µM.
`CCC(=O)N1NC(=C2C(=O)N(C3CCCCC3)C(=O)N(C3CCCCC3)C2=O)CC1c1ccccc1` (centres undefined): the CC50 at 24 h in series [1] is greater than 100 µM. Moreover, the Activity with SK-N-BE(2)-C (filed as activator) was found to be 0.126 µM.
The corresponding values for `CC(=O)N1NC(=C2C(=O)N(C)C(=O)N(C)C2=O)CC1c1ccc(Cl)cc1` (centres undefined) are greater than 100 µM and 9.1 µM.
